The values below are quoted from earlier work in patent publication US20090226522A1, “PROCESS TO MINIMIZE POLYMORPHISM” (priority 2008, published 2009).

Read-outs that look alike come from different tables or passages of the source.

For `Cc1nnc2n1-c1ccc(Cl)cc1C(c1ccccc1)=NC2` [Alprazolam, 8-chloro-1-methyl-6-phenyl-4H-s-triazolo[4,3-α][1,4]benzodiazepine], the “solubility in methanol or ethanol” value (methanol or ethanol) is reported as “soluble”. In addition, the solubility in water entry reads like this: (water) “poorly soluble”; (water at physiological pH) “no appreciable solubility”.
